Reference: US20240246905A1 (University of Leicester, priority 2021, published 2024)

How the values were obtained:
[1] = tested on: various Staphylococcus aureus strains; assay: Disc diffusion, Staphylococcus aureus strain study; assay type: cell-based; conditions: 500 μg/mL
Method in brief: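 Kirby-Bauer disc diffusion on Mueller-Hinton agar spread with 1:200 dilution of overnight S. aureus cultures (TSB, 37 °C). Discs loaded with 50 μL of compound at 500 μg/mL; zone of inhibition recorded after 24 h at 37 °C.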

Escherichia coli DH5α = assay: Disc diffusion (Kirby-Bauer), zone of inhibition; assay type: cell-based; conditions: Escherichia coli DH5α; 500 μg/mL; '/' = no zone
Method in brief: (§1)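 Kirby-Bauer per CLSI 2017: 1 in 200 dilutions of overnight cultures (LB for Gram-negatives, TSB for Gram-positives) spread on Mueller-Hinton agar. Discs loaded with 50 μL antibiotic were added and plates incubated 24 h at 37 °C. Zone of inhibition recorded.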

[2] = tested on: Staphylococcus aureus 15981; assay: Disc diffusion (Kirby-Bauer), zone of inhibition; assay type: cell-based; conditions: Staphylococcus aureus 15981; 500 μg/mL; '/' = no zone
Method in brief: as §1

MSSA 476 [3] = assay: Disc diffusion (Kirby-Bauer), zone of inhibition; assay type: cell-based, Staphylococcus aureus; conditions: 500 μg/mL, '/' = no zone
Method in brief: as §1

MRSA 252 [4] = assay: Disc diffusion (Kirby-Bauer), zone of inhibition; assay type: cell-based, Staphylococcus aureus; conditions: 500 μg/mL, '/' = no zone
Method in brief: as §1

red blood cells = assay: Hemolysis assay (CO-ADD); assay type: cell-based; conditions: 32 μg/mL highest concentration tested
Description: A problem often encountered by emerging drugs is hemolysis, also known as drug-induced immune hemolytic anemia.

MSSA 476 [5] = assay: MIC, broth micro-dilution; assay type: cell-based, Staphylococcus aureus
Method in brief: (§2)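 Broth micro-dilution followed CLSI 2017: 1:2 antibiotic dilutions in TSB were inoculated at 5×10^5 CFU/mL. OD was recorded every 12 min over 18 h at 37 °C, and MIC was derived from sigmoidal dose-response fits.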

MRSA 252 [6] = assay: MIC, broth micro-dilution; assay type: cell-based, Staphylococcus aureus
Method in brief: as §2

HEK293 cells = assay: Cytotoxicity assay, resazurin (CO-ADD)
Method in brief: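 HEK293 cells in DMEM with 10% FBS were exposed to compounds at a single concentration of 32 μg/mL for 20 h at 37° C, 5% CO2. Viability read by resazurin fluorescence (2.3 μg/mL final, 3 h; F560/590). CC50 from sigmoidal dose-response fitting.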

**Q.** What does the source list for “(2-Isocyanovinyl)-4-acetaamido benzene [Compound 22]”?
**A.** Zone of inhibition ([1]; strain ASARM 61): 18 mm; Zone of inhibition ([1]; strain ASARM 70): 18 mm; Zone of inhibition ([1]; strain ASARM 71): 20 mm; Zone of inhibition ([1]; strain ASARM 72): 22 mm; Zone of inhibition ([1]; strain ASARM 73): 20 mm; Zone of inhibition ([1]; strain ASARM 75): 22 mm; Zone of inhibition ([1]; strain ASARM 76): 26 mm; Zone of inhibition ([1]; strain ASARM 77): 24 mm; Zone of inhibition ([1]; strain ASARM 79): 22 mm; Zone of inhibition ([1]; strain ASARM 80): 26 mm; Zone of inhibition ([1]; strain EOE 3): 20 mm; Zone of inhibition ([1]; strain EOE 23): 22 mm; Zone of inhibition ([1]; strain EOE 30): 20 mm; Zone of inhibition ([1]; strain EOE 35): 18 mm; Zone of inhibition ([1]; strain EOE 41): 20 mm; Zone of inhibition ([1]; strain EOE 42): 22 mm; Zone of inhibition ([1]; strain EOE 45): 26 mm; Zone of inhibition ([1]; strain EOE 52): 22 mm; Zone of inhibition ([1]; strain EOE 54): 16 mm; Zone of inhibition ([1]; strain EOE 57): 18 mm; Zone of inhibition ([1]; strain MRSA 252): 20 mm; Zone of inhibition ([1]; strain S139_7_7): 16 mm; Zone of inhibition ([1]; strain S197_1_1): 22 mm; Zone of inhibition ([1]; strain S197_1_8): 24 mm; Zone of inhibition ([1]; strain S197_1_9): 26 mm; Zone of inhibition ([1]; strain S197_1_10): 22 mm; Zone of inhibition ([1]; strain S295_1_1): 20 mm; Zone of inhibition ([1]; strain S295_1_2): 20 mm; Zone of inhibition ([1]; strain S295_1_3): 20 mm; Zone of inhibition ([1]; strain S364_5_11): 22 mm; Zone of inhibition ([1]; strain S364_5_12): 20 mm; Zone of inhibition ([1]; strain Sa_TPS 3026): 20 mm; Zone of inhibition ([1]; strain Sa_TPS 3072): 22 mm; Zone of inhibition ([1]; strain Sa_TPS 3092): 24 mm; Zone of inhibition ([1]; strain Sa_TPS 3097): 24 mm; Zone of inhibition ([1]; strain Sa_TPS 3103): 22 mm; Zone of inhibition ([1]; strain Sa_TPS 3104): 20 mm; Zone of inhibition ([1]; strain Sa_TPS 3106): 26 mm; Zone of inhibition ([1]; strain Sa_TPS 3118): 18 mm; Zone of inhibition ([1]; strain Sa_TPS 3133): 18 mm; Zone of inhibition ([1]; strain Sa_TPS 3134): 18 mm; Zone of inhibition ([1]; strain USFL 008): 14 mm; Zone of inhibition ([1]; strain USFL 009): 14 mm; Zone of inhibition ([1]; strain USFL 012): 16 mm; Zone of inhibition ([1]; strain USFL 016): 18 mm; Zone of inhibition ([1]; strain USFL 018): 18 mm; Zone of inhibition ([1]; strain USFL 020): 16 mm; Zone of inhibition ([1]; strain USFL 021): 16 mm; Zone of inhibition ([1]; strain USFL 028): 15 mm; Zone of inhibition ([1]; strain USFL 035): 16 mm; Zone of inhibition ([1]; strain USFL 054): 19 mm; Zone of inhibition ([1]; strain not given): 18 mm; Zone of inhibition (Escherichia coli DH5α): 20 mm; Zone of inhibition [2]: 18 mm; Zone of inhibition (MSSA 476 [3]): 16 mm; Zone of inhibition (MRSA 252 [4]): 20 mm; Hemolytic activity (HC10) (red blood cells): >32 µg/mL; MIC (MSSA 476 [5]): 172 µg/mL; MIC (MRSA 252 [6]): 55 µg/mL; Concentration toxic to HEK 293 cells (HEK293 cells; HEK 293): >32000 ng/mL; toxicity towards the HEK293 cell line (in words) (HEK293 cells; set concentration of 32 μg/mL): no toxicity
